Tested on: healthy male volunteers
Test: Human Study 1: treatment-emergent adverse events (TEAE), safety, Modified OAA/S
Assay type: in vivo
Procedure: In human study 1, fospropofol disodium was formulated as a sterile aqueous solution at a concentration of 20 mg/mL. Each vial provided contained 20 mL of solution, suitable for intravenous injection. Fospropofol was administered as a single dose of 400 mg orally, directly into the duodenum by gastroscopy or intravenously over 10 min. In human study 2, fospropofol disodium in capsules (200 mg) or matching placebo was administered orally.
The first study was an absolute bioavailability study of fospropofol conducted at a single center (PRA Health Sciences) in Groningen, Netherlands, as a three-way crossover study. The study enrolled 7 healthy male volunteers between 18 and 45 years of age inclusive, with a body mass index between 18 and 28 kg/m^2. Subjects stayed in the clinical unit for three consecutive periods of 3 days each, with a 3-day washout, between periods. For six subjects, the order of the administration routes was as follows—period 1: PO, period 2: ID, and period 3: IV. For one subject the order of the administration routes was the following—period 1: ID, period 2: IV and period 3: PO. In this study a single dose of 400 mg was administered by each route. Blinding and placebo control was impractical due to the requirement of unsedated endoscopic administration of fospropofol into the duodenum. Safety and overall pharmacodynamic effect was evaluated based on adverse events, vital signs, electrocardiogram (ECG), Modified Observer's Assessment of Alertness/Sedation (OAA/S) score, clinical laboratory tests, and physical examination.

With `CC(C)c1cccc(C(C)C)c1OCOP(=O)(O)O` [fospropofol] the “TEAE GASTROINTESTINAL DISORDERS, events (E)” value (400 mg ID) was 1, the “TEAE GASTROINTESTINAL DISORDERS, subjects (%)” value (400 mg ID) was 14% and the “TEAE GENERAL DISORDERS AND ADMINISTRATION SITE CONDITIONS, events (E)” value (400 mg ID) was 3. The “TEAE GENERAL DISORDERS AND ADMINISTRATION SITE CONDITIONS, subjects (%)” value (400 mg ID) was 43%, the “TEAE INFECTIONS AND INFESTATIONS, events (E)” value (400 mg ID) was 1 and the “TEAE INFECTIONS AND INFESTATIONS, subjects (%)” value (400 mg ID) was 14%. The “TEAE NERVOUS SYSTEM DISORDERS, events (E)” value (400 mg ID) was 3, the “TEAE NERVOUS SYSTEM DISORDERS, subjects (%)” value (400 mg ID) was 43% and the “TEAE SKIN AND SUBCUTANEOUS TISSUE DISORDERS, events (E)” value (400 mg ID) was 1. For the same molecule, the “TEAE SKIN AND SUBCUTANEOUS TISSUE DISORDERS, subjects (%)” value (400 mg ID) was 14%, the “TEAE TOTAL, events (E)” value (400 mg ID) was 9 and the “TEAE TOTAL, subjects (%)” value (400 mg ID) was 86%. For the same molecule, the “TEAE dizziness, events (E)” value (400 mg ID) was 1, the “TEAE dizziness, subjects (%)” value (400 mg ID) was 14% and the “TEAE fatigue, events (E)” value (400 mg ID) was 2. For the same molecule, the “TEAE fatigue, subjects (%)” value (400 mg ID) was 29%, the “TEAE flatulence, events (E)” value (400 mg ID) was 1 and the “TEAE flatulence, subjects (%)” value (400 mg ID) was 14%. The “TEAE herpes simplex, events (E)” value (400 mg ID) was 1, the “TEAE herpes simplex, subjects (%)” value (400 mg ID) was 14% and the “TEAE rash, events (E)” value (400 mg ID) was 1. For the same molecule, the “TEAE rash, subjects (%)” value (400 mg ID) was 14%, the “TEAE somnolence, events (E)” value (400 mg ID) was 2 and the “TEAE somnolence, subjects (%)” value (400 mg ID) was 29%. The “TEAE subrapubic pain, events (E)” value (400 mg ID) was 1, the “TEAE subrapubic pain, subjects (%)” value (400 mg ID) was 14% and the “subjects with Modified OAA/S score of 4” value (400 mg ID) was 43%. For the same molecule, the “subjects with Modified OAA/S score of 4 (n of 7)” value (400 mg ID) was “Three”, the “TEAE BLOOD AND LYMPHATIC SYSTEM DISORDERS, events (E)” value (400 mg IV) was 1 and the “TEAE BLOOD AND LYMPHATIC SYSTEM DISORDERS, subjects (%)” value (400 mg IV) was 14%. The “TEAE EYE DISORDERS, events (E)” value (400 mg IV) was 5, the “TEAE EYE DISORDERS, subjects (%)” value (400 mg IV) was 71% and the “TEAE GASTROINTESTINAL DISORDERS, events (E)” value (400 mg IV) was 4. For the same molecule, the “TEAE GASTROINTESTINAL DISORDERS, subjects (%)” value (400 mg IV) was 43%, the “TEAE GENERAL DISORDERS AND ADMINISTRATION SITE CONDITIONS, events (E)” value (400 mg IV) was 9 and the “TEAE GENERAL DISORDERS AND ADMINISTRATION SITE CONDITIONS, subjects (%)” value (400 mg IV) was 57%. The “TEAE MUSCULOSKELETAL AND CONNECTIVE TISSUE DISORDERS, events (E)” value (400 mg IV) was 2, the “TEAE MUSCULOSKELETAL AND CONNECTIVE TISSUE DISORDERS, subjects (%)” value (400 mg IV) was 29% and the “TEAE NERVOUS SYSTEM DISORDERS, events (E)” value (400 mg IV) was 31. The “TEAE NERVOUS SYSTEM DISORDERS, subjects (%)” value (400 mg IV) was 100%, the “TEAE PSYCHIATRIC DISORDERS, events (E)” value (400 mg IV) was 2 and the “TEAE PSYCHIATRIC DISORDERS, subjects (%)” value (400 mg IV) was 29%. The “TEAE REPRODUCTVE SYSTEM AND BREAST DISORDERS, events (E)” value (400 mg IV) was 1, the “TEAE REPRODUCTVE SYSTEM AND BREAST DISORDERS, subjects (%)” value (400 mg IV) was 14% and the “TEAE SKIN AND SUBCUTANEOUS TISSUE DISORDERS, events (E)” value (400 mg IV) was 1. The “TEAE SKIN AND SUBCUTANEOUS TISSUE DISORDERS, subjects (%)” value (400 mg IV) was 14%, the “TEAE TOTAL, events (E)” value (400 mg IV) was 56 and the “TEAE TOTAL, subjects (%)” value (400 mg IV) was 100%. The “TEAE burning sensation, events (E)” value (400 mg IV) was 6, the “TEAE burning sensation, subjects (%)” value (400 mg IV) was 43% and the “TEAE catheter site pain, events (E)” value (400 mg IV) was 1. For the same molecule, the “TEAE catheter site pain, subjects (%)” value (400 mg IV) was 14%, the “TEAE diplopia, events (E)” value (400 mg IV) was 1 and the “TEAE diplopia, subjects (%)” value (400 mg IV) was 14%. For the same molecule, the “TEAE disorientation, events (E)” value (400 mg IV) was 1, the “TEAE disorientation, subjects (%)” value (400 mg IV) was 14% and the “TEAE dizziness postural, events (E)” value (400 mg IV) was 1. The “TEAE dizziness postural, subjects (%)” value (400 mg IV) was 14%, the “TEAE dizziness, events (E)” value (400 mg IV) was 3 and the “TEAE dizziness, subjects (%)” value (400 mg IV) was 43%. For the same molecule, the “TEAE dry mouth, events (E)” value (400 mg IV) was 1, the “TEAE dry mouth, subjects (%)” value (400 mg IV) was 14% and the “TEAE dyspepsia, events (E)” value (400 mg IV) was 1. For the same molecule, the “TEAE dyspepsia, subjects (%)” value (400 mg IV) was 14%, the “TEAE ecchymosis, events (E)” value (400 mg IV) was 1 and the “TEAE ecchymosis, subjects (%)” value (400 mg IV) was 14%. For the same molecule, the “TEAE euphoric mood, events (E)” value (400 mg IV) was 1, the “TEAE euphoric mood, subjects (%)” value (400 mg IV) was 14% and the “TEAE fatigue, events (E)” value (400 mg IV) was 2. The “TEAE fatigue, subjects (%)” value (400 mg IV) was 29%, the “TEAE feeling abnormal, events (E)” value (400 mg IV) was 1 and the “TEAE feeling abnormal, subjects (%)” value (400 mg IV) was 14%. For the same molecule, the “TEAE feeling cold, events (E)” value (400 mg IV) was 1, the “TEAE feeling cold, subjects (%)” value (400 mg IV) was 14% and the “TEAE feeling drunk, events (E)” value (400 mg IV) was 1. The “TEAE feeling drunk, subjects (%)” value (400 mg IV) was 14%, the “TEAE genital pruritis male, events (E)” value (400 mg IV) was 1 and the “TEAE genital pruritis male, subjects (%)” value (400 mg IV) was 14%. For the same molecule, the “TEAE lymph node pain, events (E)” value (400 mg IV) was 1, the “TEAE lymph node pain, subjects (%)” value (400 mg IV) was 14% and the “TEAE muscle fatigue, events (E)” value (400 mg IV) was 2. The “TEAE muscle fatigue, subjects (%)” value (400 mg IV) was 29%, the “TEAE nausea, events (E)” value (400 mg IV) was 1 and the “TEAE nausea, subjects (%)” value (400 mg IV) was 14%. For the same molecule, the “TEAE paresthesia, events (E)” value (400 mg IV) was 9, the “TEAE paresthesia, subjects (%)” value (400 mg IV) was 86% and the “TEAE proctalgia, events (E)” value (400 mg IV) was 1. The “TEAE proctalgia, subjects (%)” value (400 mg IV) was 14%, the “TEAE sluggishness, events (E)” value (400 mg IV) was 3 and the “TEAE sluggishness, subjects (%)” value (400 mg IV) was 43%. The “TEAE somnolence, events (E)” value (400 mg IV) was 5, the “TEAE somnolence, subjects (%)” value (400 mg IV) was 71% and the “TEAE speech disorder, events (E)” value (400 mg IV) was 6. The “TEAE speech disorder, subjects (%)” value (400 mg IV) was 86%, the “TEAE tremor, events (E)” value (400 mg IV) was 1 and the “TEAE tremor, subjects (%)” value (400 mg IV) was 14%. The “TEAE visual disturbance, events (E)” value (400 mg IV) was 4, the “TEAE visual disturbance, subjects (%)” value (400 mg IV) was 54% and the “subjects with Modified OAA/S score of 4” value (400 mg IV) was 57%. The “subjects with Modified OAA/S score of 4 (n of 7)” value (400 mg IV) was 4, the “time to resolution of euphoria” value (400 mg IV, one subject) was 34 min and the “TEAE GASTROINTESTINAL DISORDERS, events (E)” value (400 mg PO) was 1. For the same molecule, the “TEAE GASTROINTESTINAL DISORDERS, subjects (%)” value (400 mg PO) was 14%.
